Key:
[1] = test system: rat anterior pituitary adenylate cyclase; conditions: cited from earlier work
[2] = test system: GH secretion; conditions: cited from earlier work
[3] = test system: hGH-RH(1-29)NH2 induced GH release; assay: Inhibition of GH release in superfused rat pituitary system; format: cell-based; conditions: antagonist 100 nM
Summary of the method: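 Dispersed rat pituitary cells in superfusion were preincubated 9 min with analog at various concentrations, then stimulated with 1 nM hGH-RH(1-29)NH2 for 3 min, repeated at 30, 60, 90, 120 min to gauge duration. GH measured by double-antibody RIA; net integrated responses expressed as percent of the initial 1 nM GH-RH response.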

With “[Ac-Tyr^1, D-Arg^2]hGH-RH(1-29)NH2 [Standard antagonist, reference compound]” as the substance, how does the “activation of rat anterior pituitary adenylate cyclase by hGH-RH(1-29)NH2” value [1] read?
The value was “prevent the activation”.

And the “nocturnal GH secretion” value ([2]; 400 μg/kg, normal subjects)?
The value was “eliminated nocturnal GH secretion”.

What about the GH levels ([2]; a patient with acromegaly) of the same substance?
Its GH levels is “reduced GH levels”.

What about the “GH response (% of control) 0 min” value ([3]; 0 min) of the same substance?
Its value is 38 % of control.

And the “GH response (% of control) 30 min” value ([3]; 30 min)?
Its value is 98 % of control.

And the “GH response (% of control) 60 min” value ([3]; 60 min)?
Its value is 81 % of control.

Source: patent US7452865B2, “Antagonistic analogs of GH RH (2003)” (The Administrare's of the Tulane Educational Fund, priority 2004, dated 2008)
